Measurements: patent US8933015B2, “Macrocyclic inhibitors of flaviviridae viruses” (Gilead Sciences, Inc., priority 2010, dated 2015)
Where two headings read alike, the source gives them in different places.

Conditions: rcm bond, 22-membered ring

Molecule CCO[C@@H]1CC/C=C/c2cccc(c2)COC(=O)[C@@H]2CCCN(N2)C(=O)[C@H](Cc2cccc(O[Si](C)(C)C(C)(C)C)c2)NC(=O)[C@H](C(C)C)NC(=O)[C@@H]1C has a ring closure, isolated yield (from C=CCC[C@@H](OCC)[C@@H](C)C(=O)N[C@H](C(=O)N[C@@H](Cc1cccc(O[Si](C)(C)C(C)(C)C)c1)C(=O)N1CCC[C@@H](C(=O)OCc2cccc(C=C)c2)N1)C(C)C, Hoveyda-Grubbs II, DCE, 2.53 mM, 83.0 °C, 1.5 h) of 66%.
CO[C@@H]1CC/C=C/CCCCOC(=O)[C@@H]2CCCN(N2)C(=O)[C@H](Cc2cccc(O[Si](C)(C)C(C)(C)C)c2)NC(=O)[C@H](C(C)C)NC(=O)[C@@H]1C showed a ring closure, isolated yield (from C=CCCCCOC(=O)[C@@H]1CCCN(C(=O)[C@H](Cc2cccc(O[Si](C)(C)C(C)(C)C)c2)NC(=O)[C@@H](NC(=O)[C@H](C)[C@@H](CCC=C)OC)C(C)C)N1, Grubbs II, DCE, 3.02 mM, 83.0 °C, 3.0 h) of 48%.
In the case of CO[C@@H]1CC/C=C/c2cccc(c2)[C@@H](C)OC(=O)[C@@H]2CCCN(N2)C(=O)[C@H](Cc2cccc(O[Si](C)(C)C(C)(C)C)c2)NC(=O)[C@H](C(C)C)NC(=O)C1, the ring closure, isolated yield (from C=CCC[C@H](CC(=O)N[C@H](C(=O)N[C@@H](Cc1cccc(O[Si](C)(C)C(C)(C)C)c1)C(=O)N1CCC[C@@H](C(=O)O[C@H](C)c2cccc(C=C)c2)N1)C(C)C)OC, Hoveyda-Grubbs II, DCE, 2.63 mM, 80.0 °C, 1.5 h) is reported as 46%.
Molecule CO[C@@H]1CC/C=C/c2ccnc(c2)COC(=O)[C@@H]2CCCN(N2)C(=O)[C@H](Cc2cccc(O[Si](C)(C)C(C)(C)C)c2)NC(=O)[C@H](C(C)C)NC(=O)[C@@H]1C has a ring closure, isolated yield (from C=CCC[C@@H](OC)[C@@H](C)C(=O)N[C@H](C(=O)N[C@@H](Cc1cccc(O[Si](C)(C)C(C)(C)C)c1)C(=O)N1CCC[C@@H](C(=O)OCc2cc(C=C)ccn2)N1)C(C)C, Hoveyda-Grubbs II, DCE, 2.69 mM, 80.0 °C, 3.0 h) of 61%.
With CO[C@@H]1CCC=Cc2ccc3c(c2)[C@@H](CC3)OC(=O)[C@@H]2CCCN(N2)C(=O)[C@H](Cc2cccc(O[Si](C)(C)C(C)(C)C)c2)NC(=O)[C@H](C(C)C)NC(=O)[C@@H]1C the ring closure, isolated yield (from C=CCC[C@@H](OC)[C@@H](C)C(=O)N[C@H](C(=O)N[C@@H](Cc1cccc(O[Si](C)(C)C(C)(C)C)c1)C(=O)N1CCC[C@@H](C(=O)O[C@@H]2CCc3ccc(C=C)cc32)N1)C(C)C, Hoveyda-Grubbs II (two portions), DCE, 3.16 mM, 83.0 °C, 6.0 h, 2 steps) was 14%.
CO[C@@H]1CCC=Cc2cccc(c2)COC(=O)[C@@H]2CCCN(N2)C(=O)[C@H](Cc2cccc(O[Si](C)(C)C(C)(C)C)c2)NC(=O)[C@H](C(C)C)NC(=O)[C@@H]1C showed a ring closure, isolated yield (from C=CCC[C@@H](OC)[C@@H](C)C(=O)N[C@H](C(=O)N[C@@H](Cc1cccc(O[Si](C)(C)C(C)(C)C)c1)C(=O)N1CCC[C@@H](C(=O)OCc2cccc(C=C)c2)N1)C(C)C, Grubbs I, DCM, 3.0 mM, 40.0 °C, 16.0 h) of 75%.
For CO[C@@H]1CCC=Cc2cccc(c2)[C@@H](C)NC(=O)[C@@H]2CCCN(N2)C(=O)[C@H](Cc2cccc(O[Si](C)(C)C(C)(C)C)c2)NC(=O)[C@H](C(C)C)NC(=O)[C@@H]1C, the ring closure, isolated yield (from C=CCC[C@@H](OC)[C@@H](C)C(=O)N[C@H](C(=O)N[C@@H](Cc1cccc(O[Si](C)(C)C(C)(C)C)c1)C(=O)N1CCC[C@@H](C(=O)N[C@H](C)c2cccc(C=C)c2)N1)C(C)C, Hoveyda-Grubbs II, DCE, 2.59 mM, 80.0 °C, 3.0 h) was 22%.
With CO[C@@H]1CCC=Cc2cccc(c2)[C@@H](C)OC(=O)[C@@H]2CCCN(N2)C(=O)[C@H](Cc2cccc(O[Si](C)(C)C(C)(C)C)c2)NC(=O)[C@H](C(C)C)NC(=O)[C@@H]1C the ring closure, isolated yield (from C=CCC[C@@H](OC)[C@@H](C)C(=O)N[C@H](C(=O)N[C@@H](Cc1cccc(O[Si](C)(C)C(C)(C)C)c1)C(=O)N1CCC[C@@H](C(=O)O[C@H](C)c2cccc(C=C)c2)N1)C(C)C, Hoveyda-Grubbs II, DCE, 2.68 mM, 83.0 °C, 3.0 h) was 70%.
In the case of CO[C@@H]1[C@@H](C)[C@@H](OC)C=CC=CC[C@@H](C)OC(=O)[C@@H]2CCCN(N2)C(=O)[C@H](Cc2cccc(O[Si](C)(C)C(C)(C)C)c2)NC(=O)[C@H](C(C)C)NC(=O)[C@@H]1C, the ring closure, isolated yield (from C=C/C=C\[C@H](OC)[C@H](C)[C@@H](OC)[C@@H](C)C(=O)N[C@H](C(=O)N[C@@H](Cc1cccc(O[Si](C)(C)C(C)(C)C)c1)C(=O)N1CCC[C@@H](C(=O)O[C@H](C)CC=C)N1)C(C)C, Grubbs I (two portions), DCM, 2.0 mM, 40.0 °C, 42.0 h) is reported as 42%.
